Test results published in patent US20110318270A1, “DRUG IDENTIFICATION PROTOCOL FOR TYPE 2 DIABETES BASED ON GENE EXPRESSION SIGNATURES” (VERVA PHARMACEUTICALS LTD, priority 2009, published 2011).

What was measured:
[1] = test system: Diet-induced obese (DIO) mice; test: Insulin sensitising effects of CAIs in diet-induced obese mice; type: in vivo; settings: for reduction in the incremental area under the glucose curve (AUC) compared with vehicle-treated animals / glucose disposal: 50 mg/kg/day for 14 days, intraperitoneal glucose tolerance test
Method: Diet-induced obese (DIO) mice were treated with each CAI at 50 mg/kg/day for 14 days.

[2] = test system: Diet-induced obese (DIO) mice; test: as above; type: in vivo; settings: for effect on glucose tolerance: 20-100 mg/kg/day for 14 days
[3] = test system: TNFα-treated 3T3-L1 adipocytes; test: TNFα-based GES small molecule library screen (MassARRAY, Zrcc score); type: cell-based; parameters: key: Zrcc: Z-score normalized for sample variation and gene contribution; settings: 10 μM compound in final 24 h of 72 h TNFα (n=2); TTA n=29, TNF n=57
Method: In order to identify new insulin sensitizing agents, a small molecule library consisting of 1120 high-purity, off-patent chemical compounds was screened using the GES. First, 3T3 […] adipocytes were cultured in fourteen 96-well plates and incubated with 3 ng/ml TNFα for 72 h prior to the addition of 10 μM of each compound in the last 24 h of TNFα treatment. Four vehicle control, four TNFα and two TNFα plus ASA- and TGZ-treated wells serving as controls were included per 96-well plate. The aim of the screen was to identify compounds that caused the expression of the 7 gene GES to most closely resemble the expression levels observed in the insulin re-sensitized cells as this is likely to indicate that these cells have restored insulin sensitivity. Following RNA extraction and cDNA synthesis, gene expression analysis of the 7 gene GES was performed using the MassARRAY (Sequenom, San Diego, Calif.) [Cullinan and Cantor Pharmacogenomics 9:1211-1215, 2008]. Data are represented as a Z-score residual coefficient correlation (Zrcc); a Z-score that is normalised for sample to sample variation and for the relative contribution that each gene makes to the predictive power of the GES. Compounds were ranked based on their Zrcc score highest to lowest, and as an initial proof of concept validation test, the top ranked 30 compounds and 23 randomly chosen, mid-ranked compounds were subjected to 2-DOG uptake assays to determine their potential insulin sensitising effects. 3T3 […] adipocytes were incubated with 25 μM of each compound prior to performing 2-DOG uptake assays in the presence or absence of submaximal amounts of insulin (0.5 nM for 15 min).
The GES-ranked compounds were next broadly grouped into classes based on known mechanism of action or common structural features and re-represented as the mean Zrcc. Only compound classes with 10 or more members were considered further. As a result, the class of treatments that scored the highest, thus representing the most insulin sensitive cells, were the vehicle-treated cells with an average Zrcc score of 1.76±0.37; (p<0.0001 to TNFα treatment and p<0.002 to TNFαplus ASA and TGZ co-treatments).
In a CD63-only screen, TTA results with a negative score and TNF with a positive (p=0.02). Serving as internal controls in the screen, 3T3-L1 adipocytes were either treated with vehicle (0.2% w/v DMSO) for 72 h (n=55), 3 ng/ml TNFα for 72 h (TNF (n=57) or 3 ng/ml TNFα for 72 h plus 10 μM TGZ and 5 mM ASA in the final 24 h of the TNFα incubation (TTA) (n=29). The gene expression analysis of the GES was performed using the Mass ARRAY system (Cullinan and Cantor, 2008 supra). Data are calculated as a Z-score of the residual component following adjustment for total expression levels and incorporating the correlation coefficients derived from the Bayesian prediction model (Zrcc). The resulting metric is a Z-score that was normalized for sample to sample variation and for the relative contribution that each gene makes to the predictive power of the GES. Data are represented as mea Zrcc values±SEM (with p values compared with TNF-treated sample). The statistical analyses were performed using Student's t-Test assuming 2-tailed distribution and 2-sample equal variance.
In this assay, 3T3-L1 adipocytes were incubated with TNFα for 72 h followed by the addition of 10 μM of each compound in the final 24 h of the TNFα treatment (n=2). Compounds include VVP808, published insulin sensitizers furazolidone (FUR) (monoamine oxidase inhibitor), mesalamine (MES) and fosfosal (FOS) (NSAIDs), and estradiol-17-beta (EST), and known insulin resistance-inducing compounds such as ajmaline (AJM) (glucose uptake inhibitor) and corticosterone (COR) (glucocorticoid). Serving as internal controls in the screen, 3T3-L1 adipocytes were either treated with vehicle (0.2% DMSO) for 72 h (n=55), 3 ng/ml TNFα for 72 h) TNF) (n=57) or 3 ng/ml TNFα for 72 h plus 10 μM TGZ and […] ASA in the final 24 h of the TNFα incubation (TTA) (n=29). […]

db/db mice = settings: for change in blood glucose levels compared with vehicle-treated animals: 300 mg/kg metformin or 20 mg/kg MTZ for 8 d
Method: Mice treated with MTZ (50 mg/kg/d) for 14 d were placed into metabolic cages for 24 h.

3T3-L1 adipocytes = test: Reversal of TNFα-induced insulin resistance, 2-deoxyglucose (2-DOG) uptake; type: cell-based
Method: Initially, a model of TNFα-induced insulin resistance in 3T3-L1 adipocytes was established as described previously (Sartipy and Loskutoff J Biol Chem 278:52298-52306, 2003). Following exposure of 3T3-L1 adipocytes to 3 ng/ml TNFα for 72 h, insulin resistance was determined by the ability of the cells to take up 2-deoxyglucose (2-DOG) in response to insulin. TNFα caused a 37% decrease in 2-DOG uptake compared with insulin-stimulated vehicle-treated cells (p<0.0001) (Table 1).
3T3-L1 adipocytes were either treated with vehicle—(Veh), 3 ng/ml TNFα-(TNF) or 3 ng/ml TNFα plus 10 μM TGZ and 5 mM ASA (TTA) as detailed above. Cells were then treated with insulin (0 or 10 nM) for 30 min followed by measurement of 2-deoxyglucose (2-DOG) uptake over the final 10 min of insulin stimulation. Data are presented as % change in 2-DOG uptake compared with vehicle-treated, insulin-stimulated cells and represent mean values±SEM of >3 independent experiments and each data point was assayed in triplicate. […] The amount of 2-DOG transported in vehicle-treated adipocytes was 20.5±3.4 pmol/min/well. Statistical analyses were performed using Student's t-Test assuming 2-tailed distribution and 2-sample equal variance.

| Compound | reduction in the incremental area under the glucose curve (AUC) compared with vehicle-treated animals / glucose disposal [1] | Mean Zrcc_GES ± SEM, CLU single gene [3] | Mean Zrcc_GES ± SEM, CS single gene [3] | Mean Zrcc_GES ± SEM, STEAP4 single gene [3] | also measured |
| --- | --- | --- | --- | --- | --- |
| NS(=O)(=O)c1cc(Cl)c(Cl)c(S(N)(=O)=O)c1 [DCP, dichlorphenamide] | did not affect glucose disposal |  |  |  | effect on glucose tolerance [2]: no significant effect |
| C[C@]12C[C@H](O)[C@H]3[C@@H](CCC4=CC(=O)CC[C@@]43C)[C@@H]1CC[C@@H]2C(=O)CO [COR, corticosterone] |  | 0.5 | −0.5 | −0.2 |  |
| CC(=O)/N=c1/sc(S(N)(=O)=O)nn1C [MTZ, methazolamide] | 27% |  |  |  | body weight, food and water intake or epididymal fat mass compared with vehicle-treated mice [1]: without significant changes; 24 h urine output and creatine excretion ([1]; vs vehicle-treated): not significantly altered; time of administration after which the fasting glucose effect peaked (db/db mice; db/db mice): 7 days; time of administration after which the fasting glucose effect was seen (db/db mice; db/db mice): 3 days; lower HbA1c levels (db/db mice; db/db mice, 50 mg/kg for 28 days, vs vehicle): up to 23%; reduction of glucose urine concentration compared with vehicle-treated mice (db/db mice; db/db mice, 50 mg/kg/d for 14 d, metabolic cages 24 h): 18%; change in blood glucose levels compared with vehicle-treated animals (db/db mice; db/db mice): significantly lower change; fasting glucose levels (db/db mice; db/db mice, 20 or 50 mg/kg/d for 14 days): dose-dependent decrease; body weight, food or water intake (db/db mice; mouse, in vivo, 20 mg/kg): No change; decrease in food intake (db/db mice; mouse, in vivo, 50 mg/kg): 27%; food intake (db/db mice; mouse, in vivo, 50 mg/kg): 4.8 ± 0.5 g/day; change in fasting blood glucose after the treatment period (db/db mice; pair-fed db/db mice, 8 days, n=6/group): -6.2 ± 1.5 mM; plasma insulin levels ([2]; 14 days, dose range): dose-dependent decrease; circulating glucose levels compared with vehicle-treated mice ([2]; concentrations above 20 mg/kg, 14 days): significant reduction |
| NS(=O)(=O)c1cc(C2(O)NC(=O)c3ccccc32)ccc1Cl (centres unmarked) [CTD, chlorthalidone] | did not affect glucose disposal |  |  |  | effect on glucose tolerance [2]: no significant effect |
| O=C1OCCN1/N=C/c1ccc([N+](=O)[O-])o1 [FUR, furazolidone] |  | 0.4 | −0.2 | 0.7 |  |
| O=C(O)c1ccccc1OP(=O)(O)O [FOS, fosfosal] |  | 0.6 | −0.05 | 0.3 |  |
| Nc1ccc(O)c(C(=O)O)c1 [MES, mesalamine] |  | −0.9 | 3.1 | −0.4 |  |
| CNS(=O)(=O)c1nn(C)c(=NC(C)=O)s1 [MMTZ, N-methyl-methazolamide] | not observed |  |  |  |  |
| NS(=O)(=O)c1cc(C(=O)O)c(NCc2ccco2)cc1Cl [furosemide] |  |  |  |  | effect on glucose tolerance [2]: no significant effect |
| CC(=O)/N=c1/sc(S(N)(=O)=O)nn1C [compound 808] |  | −0.4 | 0.2 | 0.5 |  |
| Nc1ccccc1S(N)(=O)=O [2ABS, 2-aminobenzene sulphonamide] | did not affect glucose disposal |  |  |  | effect on glucose tolerance [2]: no significant effect |
| CC[C@H]1[C@@H]2C[C@H]3[C@@H]4N(C)c5ccccc5[C@]45C[C@@H]([C@H]2[C@H]5O)N3[C@@H]1O [AJM, ajmaline] |  | −0.2 | −0.5 | 0.6 |  |
| Acute Insulin: insulin, 10 nM for 30 min |  |  |  |  | 2-DOG Uptake (% of insulin-stimulated alone) (3T3-L1 adipocytes; insulin 10 nM 30 min, TNFα 3 ng/ml 72 h, 10 μM TGZ & 5 mM ASA final 24 h, mean ± SEM): 100.0 ± 9.7%; fold increase in 2-DOG uptake above basal level (3T3-L1 adipocytes; vehicle-treated, insulin-stimulated adipocytes (10 nM, 30 min)): 6.6±0.6 fold |
| CN(C)C(=N)N=C(N)N [metformin] |  |  |  |  | change in blood glucose levels compared with vehicle-treated animals (db/db mice; db/db mice): significantly lower change |
| estradiol-17-beta |  | 0.5 | 0.04 | 0.3 |  |
